# Patent publication US5670506A, “Halogen, isothiocyanate or azide substituted xanthines” (Cell Therapeutics, Inc., priority 1993, dated 1997)
# Assays:
# [1] = tested on: human lymphocytes; test: inhibition of blast formation from human lymphocytes stimulated by IL-2; format: cell-based; details: Lymphocyte, FIG. 10, read-out: IC50, blastogenesis stimulated by IL-2
# Method: This is a human in vitro assay for immunosuppressive activity of the inventive compounds.
# A third assay measures an ability of an inventive compound to inhibit IL-2-induced proliferation of murine thymocytes. Thymus glands are obtained from 4-6 week old mice and plated as a single cell suspension into flat bottomed wells in RPMI 1640 medium supplemented with 10% fetal calf serum. The inventive compounds are added to appropriate wells and the cells are incubated for 1-2 hrs. Concanavilin A (ConA, 0.25 μg/ml) and IL-1 (20 ng/ml) are added and the plates are incubated for 4 days. Cell proliferation is determined as above. There are also variations for this assay that follow the same basic stimulation and measure inhibition of proliferation format. For example, splenocytes can be used instead of thymocytes to measure more of a B cell response than a T cell response (e.g., thymocytes) and stimulated by an anti-mu antibody (40 μg/ml), IL-4 or PMA (2.5 nM). Similarly, human lymphocytes can be used from normal human volunteers and stimulated with human IL-2 (100 U/ml, Genzyme) and/or anti-CD3 antibody (2.5 μg/ml, Boehinger Mannheim).
# This example illustrates an experiment showing the effects of CT1525, CT1529 and CT1595 (see Table 1 above for chemical names) on inhibition of blast formation from human lymphocytes stimulated by IL-2 or an anti-CD3 antibody (FIG. 10). […]
# [2] = tested on: CMV promoter activity in transformed (adenovirus) cells; test: CMV promoter assay (gene transcription and translation, cytotoxic activity); format: cell-based; details: read-out: IC50 (μM), CMV promoter assay
# Source text: This example illustrates data regarding proliferative activity of various inventive compounds for inducting CMV promoter activity. The CMV promoter assay measures gene transcription and translation activity wherein any active compounds will nave cytotoxic activity to inhibit cellular protein synthesis machinery in transformed (adenovirus) cells.
smiles,measurement,setting,value
"Cn1cnc2c1c(=O)n(CCCCC(=O)CCl)c(=O)n2C [CT1595, 1-(6-chloro-5-oxohexyl)-3,7-dimethylxanthine]",IC50,[1],< 5 µM
same,IC50,[2],20 µM
